Experimental data as given in patent publication US20110002843A1, “METHOD OF DETECTING MYOCARDIAL DYSFUNCTION IN PATIENTS HAVING A HISTORY OF ASTHMA OR BRONCHOSPASM” (priority 2005, published 2011).

Tests used:
Adenosine Receptor A1 = target: T1, Adenosine Receptor A1 (Cavia porcellus, UniProt P47745); test: G.P. Left Atrium (Negative Inotropy) bioassay; design: species or system guinea pig
T1 construct: prepared guinea pig assays for binodenoson; from tissue; host or cells: isolated guinea pig right / left atrium
T1 sequence (P47745 1-326): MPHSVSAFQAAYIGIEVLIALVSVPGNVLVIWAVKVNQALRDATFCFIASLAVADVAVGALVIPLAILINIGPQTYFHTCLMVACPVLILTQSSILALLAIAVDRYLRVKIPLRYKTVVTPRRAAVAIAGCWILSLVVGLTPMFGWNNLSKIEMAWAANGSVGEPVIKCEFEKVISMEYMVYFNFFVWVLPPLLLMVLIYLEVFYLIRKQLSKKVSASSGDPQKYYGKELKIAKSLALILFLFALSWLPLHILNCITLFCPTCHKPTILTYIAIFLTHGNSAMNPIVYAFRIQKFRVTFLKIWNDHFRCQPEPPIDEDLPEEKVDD
Excerpt: It is further preferable to use compounds that are selective for the A2A receptor over the A2B receptor. Additional methods are known in the art for performing bioassays and are useful to identify selectivity to the A2B receptor as well as confirming selectivity and potency in vivo. Such bioassays are typically performed prior to animal and human trials.

[1] = Isolated and denervated atrial preparations, rate
[2] = doses that increased coronary vasodilation in dogs; cited from earlier work

Nc1nc(N/N=C/C2CCCCC2)nc2c1ncn2[C@@H]1O[C@H](CO)[C@@H](O)[C@H]1O (stereo in doubt) [Binodenoson, 2-{2-[(Cyclohexyl)methylene]hydrazino}adenosine]
EC50 (Adenosine Receptor A1): 38.9 µM
atrial rate [1]: did not increase the rate
lung resistance [2]: did not increase lung resistance
respiratory rate [2]: significant increase in respiratory rate
